Read-outs that look alike come from different tables or passages of the source.
How the values were obtained:
Experiment in all cases: Microculture tetrazolium assay
Assay type in all cases: cell-based
T47D = system: T47D
SKOV3 = settings: read-out: IC50
LOX = settings: read-out: IC50
SKVLB = settings: for VLB/OV3: IC50 ratio SKVLB/SKOV3; for IC50: SKVLB
HT29 = settings: read-out: IC50

Row | Compound | IC50 (T47D; Homo sapiens, read-out: IC50) [µM] | IC50 (SKOV3; Homo sapiens, SK-OV-3, SKOV3) [µM] | IC50 (LOX) [µM] | IC50 (SKVLB; read-out: IC50) [µM] | IC50 (HT29; Homo sapiens, HT-29, HT29) [µM] | IC50 (SKVLB; listed as BCH1158, read-out: IC50) [µM] | VLB/OV3 (SKVLB) | IC50 (SKVLB) [µM] | IC50 (T47D; read-out: IC50) [µM] | IC50 (SKOV3; SKOV3) [µM] | IC50 (HT29; HT29) [µM] | IC50 (T47D; Homo sapiens) [µM] | VLB/OV3 (SKVLB; listed as BCH1158)
1 | CC(=O)[C@@H]1CC2=C(C(=O)c3cc4ccccc4c(O)c3C2=O)[C@@H](O[C@@H]2O[C@@H](C)[C@@H](O)[C@@H](O)C2I)O1 (stereo partly drawn) [BCH-1990] | 3.88 | 2.1 | 3.01 |  | 1.1 |  | 2.64 | 5.54 |  |  |  |  | 
2 | CC(F)(F)C1CC2=C(CO1)C(=O)c1cc3ccccc3c(O)c1C2=O (stereo not drawn) [BCH-1638, 3-(1',1'-difluoroethyl)-6 and 11-hydroxy-1,2,3,4-tetrahydro-(2-oxygen)-naphthacene-5,12-dione] | > 100 | > 100 | > 100 | > 100 | > 100 |  |  |  |  |  |  |  | 
3 | COCOCC(=O)C1CC2=C(CO1)C(=O)c1c(c(OC(C)=O)c3ccccc3c1OC(C)=O)C2=O (stereo not drawn) [BCH-695, 6,11-diacetoxy-3-(2-methoxymethoxy)aceto-1,2,3,4-tetrahydro-(2-oxygen)naphthacene-5,12-dione] | 25.2 | 30.8 | 21.5 | 15 | 11.4 |  | 0.49 |  |  |  |  |  | 
4 | CC(=O)C1CC2=C(CS1)C(=O)c1c(cc3ccccc3c1O)C2=O (stereo not drawn) [BCH-1152] | 100 | 100 | 100 | 100 | 100 |  |  |  |  |  |  |  | 
5 | (1'S,1R,3R) and (1'S,1S,3S)-5,12-dioxo-3-ethyl-6-hydroxy-1-(2',3',6'-trideoxy-3'-trifluoroacetamido-4'-O-p-nitrobenzoyl-L-lyxohexopyranose)-3,4,5,12-tetrahydroanthraceno[2,3-C]pyran [BCH-1199] |  |  | > 100 | > 100 |  |  |  |  | 46.2 | 32.3 | > 100 |  | 
6 | C=CC1CC2=C(C(=O)c3cc4ccccc4c(OC(C)=O)c3C2=O)C(OC)O1 (stereo not drawn) [BCH-716, 6-acetoxy-1-methoxy-1,2,3,4-tetrahydro-3-vinyl-(2-oxygen)naphthacene-5,12-dione] | 70.3 | > 100 | 41.6 | 85.5 | > 100 |  |  |  |  |  |  |  | 
7 | CCN(CC)C(=O)[C@H]1CC2=C(C(=O)c3cc4ccccc4c(O)c3C2=O)[C@H](O[C@H]2C[C@H](NC(=O)C(F)(F)F)[C@H](O)[C@H](C)O2)O1 [BCH-1653] | 7.09 | 3.22 | 3.92 |  | 0.885 |  | 1.85 | 5.97 |  |  |  |  | 
8 | C[C@@H]1O[C@@H](OC2OC(C#N)Cc3c(O)c4c(c(O)c32)C(=O)c2ccccc2C4=O)C[C@H](NC(=O)C(F)(F)F)[C@@H]1O (mixture of isomers) [BCH-2055, (1'S,1R,3S) and (1'S,1S,3R)(5,12-Dihydroxy-1-(2',3',6'-trideoxy-3'-trifluoroacetamido-4'-hydroxy-L-lyxohexopyranose)-6,11-dioxo-3,4,5,12-tetrahydroanthraceno-[2,3-c]pyran-3-yl)nitrile] |  | 0.898 | 1.13 | 2.56 | 0.471 |  | 2.85 |  |  |  |  | 3.51 | 
9 | CC[C@@H]1Cc2c(O)c3c(c(O)c2[C@@H](O)O1)C(=O)c1ccccc1C3=O (relative stereo) [BCH-1174, (trans)-6,11-dioxo-3-ethyl-1,5,12-trihydroxy-3,4,5,12-tetrahydroanthraceno-[2,3-c]-pyran] | > 100 | > 100 | > 100 | > 100 | > 100 |  |  |  |  |  |  |  | 

Further lines, with some results ahead:

Row | IC50 (T47D; Homo sapiens, read-out: IC50) [µM] | IC50 (SKOV3; Homo sapiens, SK-OV-3, SKOV3) [µM] | IC50 (LOX) [µM] | IC50 (SKVLB; read-out: IC50) [µM] | IC50 (HT29; Homo sapiens, HT-29, HT29) [µM] | IC50 (SKVLB; listed as BCH1158, read-out: IC50) [µM] | Compound | VLB/OV3 (SKVLB) | IC50 (SKVLB) [µM] | IC50 (T47D; read-out: IC50) [µM] | IC50 (SKOV3; SKOV3) [µM] | IC50 (HT29; HT29) [µM] | IC50 (T47D; Homo sapiens) [µM] | VLB/OV3 (SKVLB; listed as BCH1158)
10 | 2 | 1.68 | 1.35 | 2.74 | 0.871 |  | CC(=O)[C@@H]1CC2=C(C(=O)c3cc4ccccc4c(O)c3C2=O)[C@@H](O[C@H]2C[C@H](NC(=O)C(F)(F)F)[C@H](O)[C@H](C)O2)S1 [BCH-1641] | 1.63 |  |  |  |  |  | 
11 | 5.6 | 4.2 | 5.2 | 12 | 5.8 |  | CC[C@@H]1CO[C@@H](O[C@H]2C[C@H](NC(=O)C(F)(F)F)[C@H](O)[C@H](C)O2)C2=C1C(=O)c1c(cc3ccccc3c1O)C2=O (mixture of isomers) [BCH-2084, (1'S, 1S,4S) and (1'S,1R,4R)-5,12-dioxo-4-ethyl-6-hydroxy-1-(2',3',6'-trideoxy-3'-trifluoroacetamido-L-lyxohexopyranose)-3,4,5,12-tetrahydroanthraceno-[2,3-c]-pyran] |  |  |  |  |  |  | 
12 | 1.46 | 1.24 | 1.75 | 3.57 | 0.98 |  | C[C@@H]1O[C@@H](O[C@@H]2OC=CC3=C2C(=O)c2cc4ccccc4c(O)c2C3=O)C[C@H](NC(=O)C(F)(F)F)[C@@H]1O [BCH-2002] | 2.88 |  |  |  |  |  | 
13 | 42.8 | 49.5 | 44.2 | 90.2 | 32.1 |  | CC(=O)Nc1nc([C@@H]2CC3=C(C(=O)c4cc5ccccc5c(O)c4C3=O)[C@@H](O[C@H]3C[C@H](NC(=O)C(F)(F)F)[C@H](O)[C@H](C)O3)O2)cs1 [BCH-1623, (1'S,1R,3S)-6-hydroxy-1-(2',3',6'-trideoxy-3'-trifluoroacetamido-L-lyxohexopyranose)-3-(2-aza-3-acetamido-thienyl)-5,12-dioxo-3,4,5,12-tetrahydro-anthraceno-[2,3-c]-pyran] | 1.82 |  |  |  |  |  | 
14 | 4.49 | 2.99 | 3.58 | 9.54 | 4.31 |  | COC[C@@H]1CC2=C(C(=O)c3cc4ccccc4c(O)c3C2=O)[C@@H](O[C@H]2C[C@H](NC(=O)C(F)(F)F)[C@H](O)[C@H](C)O2)O1 [BCH-1694, (1'S,1R,3S)-5,12-dioxo-6-hydroxy-3-methoxymethyl-1-(2',3',6'-trideoxy-3'-trifluoroacetamido-L-lyxohexopyranose)-3,4,5,12-tetrahydroanthraceno-[2,3-C]pyran] | 3.19 |  |  |  |  |  | 
15 |  |  | > 100 |  |  | 6.2 | CC(=O)C1CC2=C(C(=O)c3cc4ccccc4c(O)c3C2=O)C(OC2CC(N=[N+]=[N-])C(I)C(C)O2)O1 (stereo not drawn) [BCH-1158] |  |  | 25.7 | 8.35 | 8.25 |  | 0.74
16 | 3.62 | 7.02 | 2.49 | 1.6 | 3.68 |  | C[C@@H]1O[C@@H](OC2OC(CC(=O)C3CC3)CC3=C2C(=O)c2cc4ccccc4c(O)c2C3=O)C[C@H](NC(=O)C(F)(F)F)C1O (mixture of isomers) [BCH-2133, (1'S,1S,3R) and (1'S,1R,3S)-cyclopropyl-(6-hydroxy-1-((2',3',6'-trideoxy-3'-trifluoroacetamido-4'-hydroxy-L-arabino-hexopyranose)-5,10-dioxo-3,4,5,12-tetrahydronaphto-[2,3-c]pyran-3-yl)methylene)] | 0.23 |  |  |  |  |  | 
